Measured values taken from US7390806B2, “Antibiotics containing borinic acid complexes and methods of use” (Anacor Pharmaceuticals, Inc., priority 2002, dated 2008).

test system: E. faecalis ATCC 29212; assay: MIC determination, E. faecalis ATCC 29212; format: cell-based, Enterococcus faecalis; details: Table 1

First: Oc1cccc2cccnc12 [Compound 85, 8-hydroxyquinoline]
Second: Cc1ccnc2c(O)cccc12 [Compound 67]
The “MIC E. faecalis ATCC 29212” value of the first is lower: 4 micrograms per ml for the first, 64 micrograms per ml for the second.

Compared with Oc1cccc2cccnc12 [Compound 15, 8-hydroxyquinoline], Oc1ccc(F)c2cccnc12 [Compound 35] is lower in “MIC E. faecalis ATCC 29212” value: 16 micrograms per ml for the first, 8 micrograms per ml for the second.

First: Oc1cccc2cccnc12 [Compound 73, 8-hydroxyquinoline]
Second: C#CB(Oc1cccc2cccnc12)c1ccccc1Cl [Compound 43, (2-Chlorophenyl)ethynylborinic acid 8-Hydroxyquinoline ester]
The “MIC E. faecalis ATCC 29212” value of the first is higher: 64 micrograms per ml for the first, 8 micrograms per ml for the second.

Oc1cccc2cccnc12 [Compound 89, 8-hydroxyquinoline] was tested, and the “MIC E. faecalis ATCC 29212” value was 8 micrograms per ml.
For Oc1cccc2cccnc12 [Compound 78, 8-hydroxyquinoline], the “MIC E. faecalis ATCC 29212” value was 8 micrograms per ml.
In the case of Oc1cccc2cccnc12 [Compound 54, 8-hydroxyquinoline], the “MIC E. faecalis ATCC 29212” value is reported as 8 micrograms per ml.
With Oc1cccc2cccnc12 [Compound 63, 8-hydroxyquinoline] the “MIC E. faecalis ATCC 29212” value was 8 micrograms per ml.
In the case of Oc1cccc2cccnc12 [Compound 60, 8-hydroxyquinoline], the “MIC E. faecalis ATCC 29212” value is reported as 8 micrograms per ml.

test system: M. catarrhalis ATCC 25238; assay: MIC determination, M. catarrhalis ATCC 25238; format: cell-based; details: Table 1

Compared with Oc1cccc2cccnc12 [Compound 85, 8-hydroxyquinoline], Cc1ccnc2c(O)cccc12 [Compound 67] is lower in “MIC M. catarrhalis ATCC 25238” value: 2 micrograms per ml for the first, 0.5 micrograms per ml for the second.

Compared with Oc1cccc2cccnc12 [Compound 15, 8-hydroxyquinoline], Oc1ccc(F)c2cccnc12 [Compound 35] is higher in “MIC M. catarrhalis ATCC 25238” value: 0.5 micrograms per ml for the first, 2 micrograms per ml for the second.

First: Oc1cccc2cccnc12 [Compound 73, 8-hydroxyquinoline]
Second: C#CB(Oc1cccc2cccnc12)c1ccccc1Cl [Compound 43, (2-Chlorophenyl)ethynylborinic acid 8-Hydroxyquinoline ester]
The “MIC M. catarrhalis ATCC 25238” value of the first is lower: 0.25 micrograms per ml for the first, 1 micrograms per ml for the second.

With Oc1cccc2cccnc12 [Compound 89, 8-hydroxyquinoline] the “MIC M. catarrhalis ATCC 25238” value was 2 micrograms per ml.
Oc1cccc2cccnc12 [Compound 78, 8-hydroxyquinoline] was tested, and the “MIC M. catarrhalis ATCC 25238” value was 2 micrograms per ml.
With Oc1cccc2cccnc12 [Compound 54, 8-hydroxyquinoline] the “MIC M. catarrhalis ATCC 25238” value was 1 micrograms per ml.
With Oc1cccc2cccnc12 [Compound 63, 8-hydroxyquinoline] the “MIC M. catarrhalis ATCC 25238” value was 1 micrograms per ml.
With Oc1cccc2cccnc12 [Compound 60, 8-hydroxyquinoline] the “MIC M. catarrhalis ATCC 25238” value was 2 micrograms per ml.

test system: S. pneumoniae ATCC 6301; assay: MIC determination, S. pneumoniae ATCC 6301; format: cell-based, Streptococcus pneumoniae; details: Table 1

First: Oc1cccc2cccnc12 [Compound 85, 8-hydroxyquinoline]
Second: Cc1ccnc2c(O)cccc12 [Compound 67]
The “MIC S. pneumoniae ATCC 6301” value of the first is higher: 2 micrograms per ml for the first, 1 micrograms per ml for the second.

Oc1cccc2cccnc12 [Compound 15, 8-hydroxyquinoline] and Oc1ccc(F)c2cccnc12 [Compound 35] are the same in “MIC S. pneumoniae ATCC 6301” value: 2 micrograms per ml for the first, 2 micrograms per ml for the second.

First: Oc1cccc2cccnc12 [Compound 73, 8-hydroxyquinoline]
Second: C#CB(Oc1cccc2cccnc12)c1ccccc1Cl [Compound 43, (2-Chlorophenyl)ethynylborinic acid 8-Hydroxyquinoline ester]
The “MIC S. pneumoniae ATCC 6301” value of the first is higher: 2 micrograms per ml for the first, 1 micrograms per ml for the second.

Oc1cccc2cccnc12 [Compound 89, 8-hydroxyquinoline] was tested, and the “MIC S. pneumoniae ATCC 6301” value was 1 micrograms per ml.
Oc1cccc2cccnc12 [Compound 78, 8-hydroxyquinoline] was tested, and the “MIC S. pneumoniae ATCC 6301” value was 1 micrograms per ml.
Oc1cccc2cccnc12 [Compound 54, 8-hydroxyquinoline] was tested, and the “MIC S. pneumoniae ATCC 6301” value was 2 micrograms per ml.
Oc1cccc2cccnc12 [Compound 63, 8-hydroxyquinoline] was tested, and the “MIC S. pneumoniae ATCC 6301” value was 2 micrograms per ml.
Oc1cccc2cccnc12 [Compound 60, 8-hydroxyquinoline] was tested, and the “MIC S. pneumoniae ATCC 6301” value was 2 micrograms per ml.

test system: E. faecium CT-26; assay: MIC determination, E. faecium CT-26; format: cell-based, Enterococcus faecium; details: Table 1

Oc1cccc2cccnc12 [Compound 85, 8-hydroxyquinoline] and Cc1ccnc2c(O)cccc12 [Compound 67] are the same in “MIC E. faecium CT-26” value: 4 micrograms per ml for the first, 4 micrograms per ml for the second.

Oc1cccc2cccnc12 [Compound 15, 8-hydroxyquinoline] and Oc1ccc(F)c2cccnc12 [Compound 35] are the same in “MIC E. faecium CT-26” value: 4 micrograms per ml for the first, 4 micrograms per ml for the second.

Compared with Oc1cccc2cccnc12 [Compound 73, 8-hydroxyquinoline], C#CB(Oc1cccc2cccnc12)c1ccccc1Cl [Compound 43, (2-Chlorophenyl)ethynylborinic acid 8-Hydroxyquinoline ester] is lower in “MIC E. faecium CT-26” value: 8 micrograms per ml for the first, 2 micrograms per ml for the second.

With Oc1cccc2cccnc12 [Compound 89, 8-hydroxyquinoline] the “MIC E. faecium CT-26” value was 2 micrograms per ml.
Oc1cccc2cccnc12 [Compound 78, 8-hydroxyquinoline] was tested, and the “MIC E. faecium CT-26” value was 2 micrograms per ml.
In the case of Oc1cccc2cccnc12 [Compound 54, 8-hydroxyquinoline], the “MIC E. faecium CT-26” value is reported as 4 micrograms per ml.
Oc1cccc2cccnc12 [Compound 63, 8-hydroxyquinoline] was tested, and the “MIC E. faecium CT-26” value was 4 micrograms per ml.
In the case of Oc1cccc2cccnc12 [Compound 60, 8-hydroxyquinoline], the “MIC E. faecium CT-26” value is reported as 4 micrograms per ml.

test system: S. aureus ATCC 29213; assay: MIC determination, S. aureus ATCC 29213; format: cell-based, Staphylococcus aureus; details: Table 1

Oc1cccc2cccnc12 [Compound 85, 8-hydroxyquinoline] and Cc1ccnc2c(O)cccc12 [Compound 67] are the same in “MIC S. aureus ATCC 29213” value: 2 micrograms per ml for the first, 2 micrograms per ml for the second.

Compared with Oc1cccc2cccnc12 [Compound 15, 8-hydroxyquinoline], Oc1ccc(F)c2cccnc12 [Compound 35] is higher in “MIC S. aureus ATCC 29213” value: 0.125 micrograms per ml for the first, 1 micrograms per ml for the second.

Compared with Oc1cccc2cccnc12 [Compound 73, 8-hydroxyquinoline], C#CB(Oc1cccc2cccnc12)c1ccccc1Cl [Compound 43, (2-Chlorophenyl)ethynylborinic acid 8-Hydroxyquinoline ester] is lower in “MIC S. aureus ATCC 29213” value: 2 micrograms per ml for the first, 1 micrograms per ml for the second.

In the case of Oc1cccc2cccnc12 [Compound 89, 8-hydroxyquinoline], the “MIC S. aureus ATCC 29213” value is reported as 2 micrograms per ml.
For Oc1cccc2cccnc12 [Compound 78, 8-hydroxyquinoline], the “MIC S. aureus ATCC 29213” value was 2 micrograms per ml.
Oc1cccc2cccnc12 [Compound 54, 8-hydroxyquinoline] was tested, and the “MIC S. aureus ATCC 29213” value was 2 micrograms per ml.
Oc1cccc2cccnc12 [Compound 63, 8-hydroxyquinoline] was tested, and the “MIC S. aureus ATCC 29213” value was 2 micrograms per ml.
With Oc1cccc2cccnc12 [Compound 60, 8-hydroxyquinoline] the “MIC S. aureus ATCC 29213” value was 2 micrograms per ml.

test system: S. epidermidis ATCC 12228; assay: MIC determination, S. epidermidis ATCC 12228; format: cell-based, Staphylococcus epidermidis; details: Table 1

Oc1cccc2cccnc12 [Compound 85, 8-hydroxyquinoline] and Cc1ccnc2c(O)cccc12 [Compound 67] are the same in “MIC S. epidermidis ATCC 12228” value: 1 micrograms per ml for the first, 1 micrograms per ml for the second.

Going from Oc1cccc2cccnc12 [Compound 15, 8-hydroxyquinoline] to Oc1ccc(F)c2cccnc12 [Compound 35], the “MIC S. epidermidis ATCC 12228” value rises from 1 micrograms per ml to 2 micrograms per ml.

Oc1cccc2cccnc12 [Compound 73, 8-hydroxyquinoline] and C#CB(Oc1cccc2cccnc12)c1ccccc1Cl [Compound 43, (2-Chlorophenyl)ethynylborinic acid 8-Hydroxyquinoline ester] are the same in “MIC S. epidermidis ATCC 12228” value: 1 micrograms per ml for the first, 1 micrograms per ml for the second.

Oc1cccc2cccnc12 [Compound 89, 8-hydroxyquinoline] was tested, and the “MIC S. epidermidis ATCC 12228” value was 1 micrograms per ml.
In the case of Oc1cccc2cccnc12 [Compound 78, 8-hydroxyquinoline], the “MIC S. epidermidis ATCC 12228” value is reported as 1 micrograms per ml.
With Oc1cccc2cccnc12 [Compound 54, 8-hydroxyquinoline] the “MIC S. epidermidis ATCC 12228” value was 1 micrograms per ml.
For Oc1cccc2cccnc12 [Compound 63, 8-hydroxyquinoline], the “MIC S. epidermidis ATCC 12228” value was 1 micrograms per ml.
With Oc1cccc2cccnc12 [Compound 60, 8-hydroxyquinoline] the “MIC S. epidermidis ATCC 12228” value was 1 micrograms per ml.
